In patent US11214803B2, “Modulators of YAP1 expression” (Ionis Pharmaceuticals, Inc., priority 2019, dated 2022):
Strand notation (5' to 3'): a small letter for the sugar, then the base; units joined by * are phosphorothioate-linked, units joined directly phosphodiester-linked; [ ] holds rarer units or linkages, { } end groups; capitals alone tell only the bases. k = constrained ethyl (cEt); [5mC] = 5-methylcytosine; d = 2'-deoxy (DNA)

Test system: Yap1 mRNA
Test: Antisense inhibition of human Yap1 in A-431 cells by cEt gapmers, single dose (Example 2, RTS4814)
Format: cell-based
Outline: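 A-431 cells (5,000/well) received 2,000 nM oligonucleotide by free uptake for about 48 h. Yap1 mRNA was then quantified by RT-qPCR with primer probe set RTS4814, normalized to RIBOGREEN total RNA, and reported as % of untreated control; asterisked values mark oligos inside the amplicon.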

[1] = Yap1 mRNA as percent of untreated control, A-431 cells, 3-10-3 cEt gapmers targeting SEQ ID NO.: 1, and 2, Table 30
[2] = A-431 cells, 5,000 cells per well, free uptake, 2,000 nM modified oligonucleotide, approx. 48 hours, RTS4814, normalized to RIBOGREEN, Table 4, asterisk (*) = targets amplicon region of primer probe set
[3] = Table 18, A-431 cells, 5,000 cells per well, free uptake, 2,000 nM modified oligonucleotide, approx. 48 hours, RTS4814, normalized to RIBOGREEN, Yap1 mRNA as percent of untreated control
[4] = Table 6, A-431 cells, 5,000 cells per well, free uptake, 2,000 nM modified oligonucleotide, approx. 48 hours, RTS4814, normalized to RIBOGREEN, Yap1 mRNA relative to untreated control cells
[5] = Table 5, A-431 cells, 5,000 cells per well, free uptake, 2,000 nM modified oligonucleotide, approx. 48 hours, RTS4814, normalized to RIBOGREEN, Yap1 mRNA relative to untreated control cells
[6] = Table 19, A-431 cells, 5,000 cells per well, free uptake, 2,000 nM modified oligonucleotide, approx. 48 hours, RTS4814, normalized to RIBOGREEN, Yap1 mRNA as percent of untreated control
[7] = Table 20, Yap1 mRNA, percent of untreated control, 3-10-3 cEt gapmers targeting SEQ ID NO.: 1 and 2
[8] = Yap1 mRNA as percent of untreated control, A-431 cells, 3-10-3 cEt gapmers targeting SEQ ID NO.: 1, and 2, Table 31
[9] = Table 23, Yap1 mRNA as percent of untreated control, 3-10-3 cEt gapmers, single dose
[10] = Table 21, Yap1 mRNA, percent of untreated control, 3-10-3 cEt gapmers targeting SEQ ID NO.: 1 and 2
[11] = Table 25, Yap1 mRNA as percent of untreated control, 3-10-3 cEt gapmers targeting SEQ ID NO.: 1, and 2

## 1075920 (antisense kA*kA*kA*dG*dA*dA*dA*dG*d[5mC]*dT*dG*d[5mC]*dG*k[5mC]*kA*k[5mC]) [compound 1075920]
[1]
  YAP1 (% UTC): 108 % UTC

## 716481 (kT*k[5mC]*kA*dG*d[5mC]*dA*dT*dA*dG*dA*dA*dG*dT*kA*kG*kG; antisense) [Compound 716481]
[2]
  YAP1 (% UTC): 23 % UTC

## 1074244 (antisense k[5mC]*kT*k[5mC]*dT*dG*dA*d[5mC]*d[5mC]*dA*dG*dA*dA*dG*kA*kT*kG) [Compound 1074244]
[3]
  YAP1 (% UTC): 95 % UTC

## 1075408 (antisense k[5mC]*kT*kA*dA*dA*dA*dT*dG*dG*d[5mC]*dA*dT*dA*kA*kG*kG) [compound 1075408]
[1]
  YAP1 (% UTC): 23 % UTC

## 716450 (kA*kA*k[5mC]*dA*dG*dA*dT*dT*d[5mC]*dA*d[5mC]*dT*dA*kA*kT*kA; antisense) [Compound 716450]
[4]
  YAP1 (% UTC): 83 % UTC

## 716412 (kG*kT*kA*dG*dT*d[5mC]*dT*dG*dG*dG*dA*dA*dA*k[5mC]*kG*kG; antisense) [Compound 716412]
[2]
  YAP1 (% UTC): 41 % UTC

## 716512 (antisense kA*k[5mC]*kT*d[5mC]*d[5mC]*dT*dT*d[5mC]*d[5mC]*dA*dA*dG*dT*kA*kG*k[5mC]) [Compound 716512]
[5]
  YAP1 (% UTC): 99 % UTC

## 716406 (kA*k[5mC]*kT*d[5mC]*dT*d[5mC]*dA*dT*d[5mC]*dT*d[5mC]*dG*dA*kG*kA*kG; antisense) [Compound 716406]
[2]
  YAP1 (% UTC): 117 % UTC

## 1075269 (antisense kT*kT*kA*dT*dT*dA*dA*d[5mC]*d[5mC]*dT*dG*dG*dA*kG*kA*kG) [Compound 1075269]
[6]
  YAP1 (% UTC): 13 % UTC

## 716424 (kG*k[5mC]*kA*dA*dT*dG*dG*dA*d[5mC]*dA*dA*dG*dG*kA*kA*kG; antisense) [Compound 716424]
[2]
  YAP1 (% UTC): 25 % UTC

## 1076424 (kA*k[5mC]*kT*dT*dA*dA*d[5mC]*d[5mC]*dT*dG*dA*d[5mC]*dA*kG*k[5mC]*kT; antisense) [Compound 1076424]
Table 22, Yap1 mRNA as percent of untreated control, 3-10-3 cEt gapmers, single dose
  YAP1 (% UTC): 76 % UTC

## 1074629 (antisense kG*kA*kG*dA*dT*dT*dT*dT*dA*dT*dG*d[5mC]*d[5mC]*kT*kG*kT) [Compound 1074629]
[6]
  YAP1 (% UTC): 3 % UTC

## 1075140 (antisense k[5mC]*kT*kT*dT*dA*dG*dG*dT*dT*dA*dA*dG*d[5mC]*kA*kA*kT) [Compound 1075140]
[3]
  YAP1 (% UTC): 86 % UTC

## 1074821 (kG*kA*kA*dA*dA*dG*dT*dG*dT*dT*dA*dA*dG*k[5mC]*kA*k[5mC]; antisense) [Compound 1074821]
[6]
  YAP1 (% UTC): 18 % UTC

## 716498 (kG*kA*kA*dG*dG*dG*d[5mC]*d[5mC]*dA*dA*dA*dA*dT*kA*k[5mC]*kT; antisense) [Compound 716498]
[4]
  YAP1 (% UTC): 92 % UTC

## 1074770 (kA*kT*k[5mC]*dT*dT*dA*dT*d[5mC]*d[5mC]*d[5mC]*dA*dA*dT*kG*k[5mC]*kT; antisense) [compound 1074770]
Table 32, Yap1 mRNA, percent of untreated control, 3-10-3 cEt gapmers targeting SEQ ID NO.: 1, and 2
  YAP1 (% UTC): 15 % UTC

## 1075556 (kT*kG*kG*d[5mC]*dA*dA*dA*dA*dG*dA*dG*dT*dG*kG*kT*kG; antisense) [Compound 1075556]
[3]
  YAP1 (% UTC): 68 % UTC

## 1074500 (k[5mC]*kT*kA*d[5mC]*dA*dA*dT*dA*dA*d[5mC]*d[5mC]*dA*dT*k[5mC]*k[5mC]*k[5mC]; antisense) [Compound 1074500]
[3]
  YAP1 (% UTC): 10 % UTC

## 1074118 (antisense k[5mC]*kA*k[5mC]*dT*d[5mC]*dG*dG*dA*d[5mC]*d[5mC]*dT*dG*d[5mC]*kG*kG*k[5mC]) [Compound 1074118]
[7]
  YAP1 (% UTC): 66 % UTC

## 1076401 (antisense kT*k[5mC]*kT*dA*dA*dA*dG*dA*d[5mC]*dT*d[5mC]*dT*d[5mC]*kA*kT*kT) [compound 1076401]
[8]
  YAP1 (% UTC): 31 % UTC

## 716469 (kG*kT*kT*dT*dG*d[5mC]*dT*d[5mC]*d[5mC]*dT*dT*dT*d[5mC]*k[5mC]*kA*kA; antisense) [Compound 716469]
[2]
  YAP1 (% UTC): 25 % UTC

## 1075825 (k[5mC]*k[5mC]*k[5mC]*d[5mC]*dT*dA*dA*dA*dG*dA*dA*dG*dA*kT*kT*kT; antisense) [compound 1075825]
[8]
  YAP1 (% UTC): 44 % UTC

## 1074598 (antisense k[5mC]*kT*kT*dA*dT*dA*dG*dT*dA*dT*dT*d[5mC]*dT*kA*kT*k[5mC]) [Compound 1074598]
[7]
  YAP1 (% UTC): 46 % UTC

## 1074865 (kA*k[5mC]*kA*dT*dA*dT*dG*dA*dG*d[5mC]*dA*dT*dG*k[5mC]*kT*k[5mC]; antisense) [compound 1074865]
[8]
  YAP1 (% UTC): 46 % UTC

## 1075889 (antisense kA*kT*kT*dA*dA*dA*dA*dG*dT*dA*dG*dG*d[5mC]*k[5mC]*k[5mC]*kT) [compound 1075889]
[8]
  YAP1 (% UTC): 71 % UTC

## 1075590 (k[5mC]*kA*kT*d[5mC]*dA*dA*dA*dA*dT*dT*dA*dG*d[5mC]*kA*kG*kG; antisense) [Compound 1075590]
[7]
  YAP1 (% UTC): 50 % UTC

## 1076009 (kT*kA*kG*d[5mC]*dG*dA*dA*dA*dA*dT*dA*dA*d[5mC]*kA*kT*kT; antisense) [Compound 1076009]
[9]
  YAP1 (% UTC): 69 % UTC

## 1076359 (kA*kT*kT*dT*dA*dT*d[5mC]*d[5mC]*dT*dA*dG*dT*dT*kA*k[5mC]*k[5mC]; antisense) [Compound 1076359]
[10]
  YAP1 (% UTC): 29 % UTC

## 1076039 (kG*kA*kT*dT*dA*dG*dA*dG*d[5mC]*dT*dG*dT*dA*kT*kT*k[5mC]; antisense) [Compound 1076039]
[10]
  YAP1 (% UTC): 29 % UTC

## 1076112 (kA*kT*kT*d[5mC]*dA*dA*dA*dA*d[5mC]*d[5mC]*dA*d[5mC]*dG*kG*kA*kA; antisense) [compound 1076112]
[1]
  YAP1 (% UTC): 98 % UTC

## 1075047 (antisense kT*kA*kA*dA*dA*dT*dT*dA*dG*dA*d[5mC]*dT*d[5mC]*k[5mC]*k[5mC]*k[5mC]) [Compound 1075047]
[10]
  YAP1 (% UTC): 7 % UTC

## 1074660 (antisense kA*kA*kT*dT*dT*d[5mC]*dA*dT*dT*dA*d[5mC]*dT*dA*k[5mC]*kT*k[5mC]) [Compound 1074660]
[3]
  YAP1 (% UTC): 48 % UTC

## 716383 (kT*k[5mC]*kA*dT*d[5mC]*dA*dT*dA*dT*dT*d[5mC]*dT*dG*k[5mC]*kT*kG; antisense) [Compound 716383]
[5]
  YAP1 (% UTC): 98 % UTC

## 1076138 (kA*kG*k[5mC]*d[5mC]*dA*dA*d[5mC]*dA*dA*dT*dT*dT*dT*kT*kG*kG; antisense) [Compound 1076138]
Table 24, Yap1 mRNA as percent of untreated control, 3-10-3 cEt gapmers targeting SEQ ID NO.: 1, and 2
  YAP1 (% UTC): 113 % UTC

## 1076203 (kG*kT*kT*dA*dA*dT*dA*d[5mC]*dA*dT*dG*dG*d[5mC]*k[5mC]*kA*kA; antisense) [Compound 1076203]
[11]
  YAP1 (% UTC): 29 % UTC

## 1074857 (antisense kA*k[5mC]*kA*dT*dT*dG*dG*dT*dA*d[5mC]*dT*dA*dT*kA*kT*kA) [Compound 1074857]
[9]
  YAP1 (% UTC): 25 % UTC

## 716535 (antisense k[5mC]*k[5mC]*kT*dG*dA*d[5mC]*dT*dG*dA*dA*dA*dA*dT*kA*kA*k[5mC]) [Compound 716535]
[2]
  YAP1 (% UTC): 86 % UTC

## 1075463 (antisense k[5mC]*kT*kT*dA*dA*dT*d[5mC]*d[5mC]*dA*dA*dA*dG*d[5mC]*kT*kT*k[5mC]) [Compound 1075463]
[10]
  YAP1 (% UTC): 34 % UTC

## 1074891 (antisense kT*kG*kA*dA*dG*dT*dT*dT*dA*dG*d[5mC]*d[5mC]*dT*kG*kA*kA) [Compound 1074891]
[11]
  YAP1 (% UTC): 31 % UTC

## 1076491 (antisense kA*kG*k[5mC]*d[5mC]*dA*dA*dA*dA*dT*dA*dG*dG*dT*kG*kA*kG) [Compound 1076491]
[11]
  YAP1 (% UTC): 12 % UTC
